The test system of one series is rgRSV224 virus. The series can be described thus: microbe, parasite or virus in culture. Format: cell-based, respiratory syncytial virus (RSV). Conditions: human respiratory syncytial virus, HeLa, 72 h, read-out: RSV HELA pEC50 (converted).

Experimental findings from US10131673B2, “Piperidine substituted tricyclic pyrazolo[1,5-a]pyrimidine derivatives with inhibitory activity on the replication of the respiratory syncytial virus (RSV)” (priority 2014, dated 2018) are described below.

Protocol for HeLa cells: Black 384-well clear-bottom microtiter plates (Corning, Amsterdam, The Netherlands) were filled via acoustic drop ejection using the echo liquid handler (Labcyte, Sunnyvale, Calif.). 200 nL of compound stock solutions (100% DMSO) were transferred to the assay plates. 9 serial 4-fold dilutions of compound were made, creating per quadrant the same compound concentration. The assay was initiated by adding 10 μL of culture medium to each well (RPMI medium without phenol red, 10% FBS-heat inactivated, 0.04% gentamycin (50 mg/mL). All addition steps are done by using a multidrop dispenser (Thermo Scientific, Erembodegem, Belgium). Next, rgRSV224 virus (MOI=1) diluted in culture medium was added to the plates. rgRSV224 virus is an engineered virus that includes an additional GFP gene (Hallak L K, Spillmann D, Collins P L, Peeples M E. Glycosaminoglycan sulfation requirements for respiratory syncytial virus infection; Journal of virology (2000), 74(22), 10508-13) and was in-licensed from the NIH (Bethesda, Md., USA). Finally, 20 μL of a HeLa cell suspension (3,000 cells/well) were plated. Medium, virus- and mock-infected controls were included in each test. The wells contain 0.05% DMSO per volume. Cells were incubated at 37° C. in a 5% CO2 atmosphere. Three days post-virus exposure, viral replication was quantified by measuring GFP expression in the cells by an in house developed MSM laser microscope (Tibotec, Beerse, Belgium). The EC50 was defined as the 50% inhibitory concentration for GFP expression. In parallel, compounds were incubated for three days in a set of white 384-well microtiter plates (Corning) and the cytotoxicity of compounds in HeLa cells was determined by measuring the ATP content of the cells using the ATPlite kit (Perkin Elmer, Zaventem, Belgium) according to the manufacturer's instructions. The CC50 was defined as the 50% concentration for cytotoxicity.

In the case of `Cc1ccc(NS(C)(=O)=O)c(C(=O)N2CCCCC2c2cc3nc4c(c(N5CCOCC5)n3n2)CCCC4)c1` (racemic) [Compound P1, N-(4-methyl-2-(2-(9-morpholino-5,6,7,8-tetrahydropyrazolo[5,1-b]quinazolin-2-yl)piperidine-1-carbonyl)phenyl)methanesulfonamide], the EC50 with rgRSV224 virus was 1.78 nM. For the same compound, the “TOX HELA pCC50” value in the series on HeLa cells worked out at 4.4.

In the case of `Cc1nc2cc(C3CCCCN3c3ncnc4cccc(C)c34)nn2c2c1CCCC2` (racemic) [Compound P36, 5-methyl-2-(1-(5-methylquinazolin-4-yl)piperidin-2-yl)-6,7,8,9-tetrahydropyrazolo[1,5-a]quinazoline], the EC50 with rgRSV224 virus is 977 nM. For the same compound, the “TOX HELA pCC50” value in the series on HeLa cells came to 4.6.

Regarding `Cc1ccc(NS(C)(=O)=O)c(C(=O)N2CCCC[C@@H]2c2cc3nc4c(c(N5CCOCC5)n3n2)CCCC4)c1` [Compound P2, (R)—N-(4-methyl-2-(2-(9-morpholino-5,6,7,8-tetrahydropyrazolo[5,1-b]quinazolin-2-yl)-piperidine-1-carbonyl)phenyl)methanesulfonamide], in the series on rgRSV224 virus, the EC50 was 13.2 nM. Further, the “TOX HELA pCC50” value in the series on HeLa cells was 4.3.

Consider `Cc1ccc(NS(C)(=O)=O)c(C(=O)N2CCCC[C@H]2c2cc3nc4c(c(N5CCOCC5)n3n2)CCCC4)c1` [Compound P3, (S)—N-(4-methyl-2-(2-(9-morpholino-5,6,7,8-tetrahydropyrazolo[5,1-b]quinazolin-2-yl)piperidine-1-carbonyl)-phenyl)methanesulfonamide], for which the EC50 in the series on rgRSV224 virus was 0.562 nM. Also, the “TOX HELA pCC50” value in the series with HeLa cells is listed as 4.5.

With `Cc1ccc2ncnc(N3CCCCC3c3cc4nc5c(c(N6CCOCC6)n4n3)CCCC5)c2c1` (centres unmarked) [Compound P4, 4-(2-(1-(6-methylquinazolin-4-yl)piperidin-2-yl)-5,6,7,8-tetrahydropyrazolo[5,1-b]quinazolin-9-yl)morpholine], the EC50 with rgRSV224 virus is 166 nM. The “TOX HELA pCC50” value in the series with HeLa cells is 4.7.

Take `Cc1cccc2ncnc(N3CCCCC3c3cc4nc5c(c(N6CCOCC6)n4n3)CCCC5)c12` (centres unmarked) [Compound P5, 4-(2-(1-(5-methylquinazolin-4-yl)piperidin-2-yl)-5,6,7,8-tetrahydropyrazolo[5,1-b]quinazolin-9-yl)morpholine]: the EC50 in the series with rgRSV224 virus is 275 nM. Further, the “TOX HELA pCC50” value in the series with HeLa cells is given as 4.6.

Turning to `Cc1cccc2nc(Cl)nc(N3CCCCC3c3cc4nc5c(c(N6CCOCC6)n4n3)CCCC5)c12` (centres unmarked) [Compound P6, 4-(2-(1-(2-chloro-5-methylquinazolin-4-yl)piperidin-2-yl)-5,6,7,8-tetrahydropyrazolo[5,1-b]quinazolin-9-yl)morpholine], in the series on rgRSV224 virus, the EC50 is 1200 nM. Besides, the “TOX HELA pCC50” value in the series on HeLa cells is 4.8.

Take `Cc1cccc2nc(NS(C)(=O)=O)nc(N3CCCCC3c3cc4nc5c(c(N6CCOCC6)n4n3)CCCC5)c12` (centres unmarked) [Compound P7, N-(5-methyl-4-(2-(9-morpholino-5,6,7,8-tetrahydropyrazolo[5,1-b]-quinazolin-2-yl)piperidin-1-yl)quinazolin-2-yl)methanesulfonamide]: the EC50 in the series with rgRSV224 virus was 6.03 nM. Further, the “TOX HELA pCC50” value with HeLa cells is 4.2.

With `Cc1ccc2nc(Cl)nc(N3CCCCC3c3cc4nc5c(c(N6CCOCC6)n4n3)CCCC5)c2c1` (centres unmarked) [Compound P8, 4-(2-(1-(2-chloro-6-methylquinazolin-4-yl)piperidin-2-yl)-5,6,7,8-tetrahydropyrazolo[5,1-b]quinazolin-9-yl)morpholine], the EC50 in the series on rgRSV224 virus is 162 nM. For the same compound, the “TOX HELA pCC50” value with HeLa cells was 4.5.

Regarding `Cc1ccc2nc(NS(C)(=O)=O)nc(N3CCCCC3c3cc4nc5c(c(N6CCOCC6)n4n3)CCCC5)c2c1` (centres unmarked) [Compound P9, N-(6-methyl-4-(2-(9-morpholino-5,6,7,8-tetrahydropyrazolo[5,1-b]-quinazolin-2-yl)piperidin-1-yl)quinazolin-2-yl)methanesulfonamide], in the series on rgRSV224 virus, the EC50 is 13.5 nM. Further, the “TOX HELA pCC50” value in the series on HeLa cells is given as 4.3.
